Results from patent publication US20210275480A1, “COMPOSITIONS AND METHODS FOR THE REDUCTION OR TREATMENT OF FIBROSIS” (AXCELLA HEALTH INC., priority 2018, published 2021).

Key:
[1] = test system: Hsp47 gene expression, primary human hepatic stellate cells; experiment: Hsp47 gene expression in TGFβ1-stimulated primary human hepatic stellate cells; format: cell-based; settings: for Hsp47 Fold Expression Relative to Control, Mean: first donor, normalized to Gapdh, single amino acid; for Hsp47 gene expression: primary human hepatic stellate cells, three healthy donors, TGFβ1 3 ng/mL 24 h, summary in words
Description: Primary human hepatic stellate cells were obtained from Samsara Sciences based on the following criteria for selecting donors: adult age (between 18 and 50 years), normal BMI (>18.5 and <25), and absence of confounding liver disease. Cells grown in Complete HSC Medium to ˜80% confluence in T75 or T150 flasks below passage 10 were seeded into sterile, collagen I coated, 96-well optical plastic microplates (ThermoScientific, 152036) at 6000 cells per well (1250 cells per cm2) and incubated overnight at 37° C., 5% CO2 in a humidified incubator in DMEM with 2% Fetal Bovine Serum and 1% Antibiotic-Antimycotic.
After the overnight incubation, plates were removed from the incubator and the medium was gently pipetted off and washed twice with 150 μL per well DPBS. The DPBS was removed and the pretreatment medium (±single amino acid dropout, 1×HMDB DMEM+1% Antibiotic-Antimycotic, 10 mM HEPES, ±supplemental amino acid dose; see experiment for medium composition) was applied to the cells at 150 μL per well. Plates were returned to the incubator for 10.5 hours.
After 10.5 hour pretreatment, the medium was removed from the cells, and the same pretreatment medium, now supplemented with 3 ng/mL TGFβ1, was applied. Each plate contained 3 ng/mL TGFβ1 in 1× human plasma amino acid (HMDB or PAA) concentration medium, 0 ng/mL in 1×HMDB, and 3 ng/mL TGFβ1+20 μM Silybin in 1×HMDB to serve as controls. Plates were then incubated for 24 hours at 37° C., 5% CO2.
After 24 hour stimulus, supernatant was removed and frozen at −80° C. in two separate aliquots. The cells were then washed with 125 μL per well Buffer FCW (FastLane Cell Multiplex NR Kit, Qiagen, 216713). The wash buffer was immediately removed and 50 μL of Cell Processing Mix (containing genomic DNA Wipeout buffer) was applied to lyse cells, incubating for 10 minutes at room temperature. RNA lysate was then transferred to 96-well qPCR plates, sealed, and gDNA was digested on thermal cycler at 75° C. for 5 minutes. RNA lysate was frozen at −80° C.
Each 20 μL one-step RT-qPCR reaction contained 4 μL of RNA lysate. Gene expression of Hsp47, and Gapdh were multiplexed using the HEX, and FAM fluorescent channels, respectively, with commercially available primer-probe mixes (the Human Hsp47 Primer-Probe Set, HEX; and the Human Gapdh Primer-Probe Set, FAM from IDT). Gene expression was evaluated using the ΔΔCq method within each single amino acid dropout and supplementation by normalizing to its own 1×HMDB concentration.

[2] = test system: procollagen Iα1 secretion, primary human hepatic stellate cells; experiment: Procollagen Iα1 secretion by TGFβ1-stimulated primary human hepatic stellate cells, ELISA; format: cell-based; settings: for procollagen Iα1 secretion: primary human hepatic stellate cells, three healthy donors, TGFβ1 3 ng/mL 24 h, summary in words
Description: Primary human hepatic stellate cells were obtained from Samsara Sciences. Cells were grown in Complete HSC Medium to ˜80% confluence in T75 or T150 flasks below passage 10 were seeded into sterile, collagen I coated, 96-well optical plastic microplates (ThermoScientific, 152036) and incubated overnight at 37° C., 5% CO2 in a humidified incubator in DMEM with 2% Fetal Bovine Serum and 1% Antibiotic-Antimycotic. After the overnight incubation, plates are washed and pretreated with medium±single amino acid dropout, 1×HMDB DMEM±supplemental amino acid dose for 10.5 hours. After 10.5 hour pretreatment, the same pretreatment medium supplemented with 3 ng/mL TGFβ1, was applied and incubated for 24 hours at 37° C., 5% CO2. After 24 hour stimulus, supernatant was removed, RNA was extracted and gene expression was evaluated using the ΔΔCq method within each single amino acid dropout and supplementation by normalizing to its own 1×HMDB concentration.
Human Procollagen 1α1 was measured from the supernatant by ELISA (Human ProCollagen I alpha 1 DuoSet ELISA, R&D Systems) at 1/100 dilution in 1× Reagent Diluent (Reagent Ancillary Kit 2, R&D Systems).
Tables 32, 33, 33-1, 33-2, 33-3, and 33-4 show the fold change in procollagen Iα1 in primary human hepatic stellate cells from three different healthy donors normalized to their respective baseline amino acid conditions. Statistical significance calculated by one-way

[3] = test system: LX-2 hepatic stellate cells; experiment: TGFβ1-induced fibrogenic gene expression (Col1a1, Acta2, Timp2) in LX-2 hepatic stellate cells, qPCR; format: cell-based, human; settings: LX-2 cells with TGFβ1
Description: Hepatic stellate cells in a healthy liver are in the space of Disse, between the hepatocytes and liver sinusoidal endothelial cells. In response to liver injury hepatic stellate cells become activated, proliferative and contractile, increase production of aSMA, secretion of type I and III collagens and specific MMP and TIMP proteins. LX-2 cells were selected as a model of activated hepatic stellate cells and used to test whether specific amino acid compositions would reduce fibrogenic gene expression induced with TGFβ1.
LX-2 hepatic stellate cells (Millipore) were seeded on day 0 at 1.67E4 cells per well in collagen I coated 96-well microplates (ThermoFisher) in Dulbecco's Modified Eagle Medium (DMEM, Corning) supplemented with 2% heat inactivated fetal bovine serum (HI-FBS, HyClone) and 0.2% Primocin (InVivoGen) and incubated overnight at 37° C., 5% CO2. […] Combinations containing N-acetylcysteine were dosed with 10 mM. Cells were pretreated for 6 hours at 37° C., 5% CO2. After pretreatment, TGFβ1 (R&D Systems) or vehicle was spiked into each well for a final concentration of 5 ng/mL and cells were incubated under this stimulus for a further 12 hours at 37° C., 5% CO2.
After 12 hour incubation, RNA extraction and quantitative PCR was conducted on lysates to determine collagen-1a1 expression normalized to β-actin housekeeping expression using the ΔΔCt method using TaqMan primer probes (Integrated DNA Technologies: Col1A1, Hs.PT.58.15517795; Actb, Hs.PT.39a.22214847; Acta2, Hs.PT.56a.24853961; Timp2, Hs.PT.58.14780594).

[4] = individual amino acid at 1X HMDB derived concentration
[5] = individual amino acid at 50X HMDB derived concentration

Compound: CC(C)[C@H](N)C(=O)O [VAL, valine]
- Hsp47 Fold Expression Relative to Control, normalized to Gapdh (Mean) ([1]; Table 38, second donor, 234 μM (baseline 1×HMDB concentration)): 1.00 fold
- Hsp47 Fold Expression Relative to Control, normalized to Gapdh (Mean) ([1]; Table 38, second donor, 4684 μM): 1.02 fold
- Hsp47 Fold Expression Relative to Control, normalized to Gapdh (Mean) ([1]; Table 38, second donor, 11710 μM): 0.99 fold
- Hsp47 Fold Expression Relative to Control, normalized to Gapdh (Mean) ([1]; Table 38, second donor, 23420 μM): 0.89 fold
- Hsp47 Fold Expression Relative to Control, normalized to Gapdh (Mean) ([1]; Table 40, second donor (so in the source), 234 μM (baseline 1×HMDB concentration)): 1.00 fold
- Hsp47 Fold Expression Relative to Control, normalized to Gapdh (Mean) ([1]; Table 40, second donor (so in the source), 4684 μM): 0.97 fold
- Hsp47 Fold Expression Relative to Control, normalized to Gapdh (Mean) ([1]; Table 40, second donor (so in the source), 11710 μM): 0.95 fold
- Hsp47 Fold Expression Relative to Control, normalized to Gapdh (Mean) ([1]; Table 40, second donor (so in the source), 23420 μM): 0.95 fold
- Hsp47 Fold Expression Relative to Control, Mean ([1]; 234 μM (1X reference)): 1.00 fold
- Hsp47 Fold Expression Relative to Control, Mean ([1]; 4684 μM): 1.05 fold
- Hsp47 Fold Expression Relative to Control, Mean ([1]; 11710 μM): 1.05 fold
- Hsp47 Fold Expression Relative to Control, Mean ([1]; 23420 μM): 1.00 fold
- Hsp47 gene expression [1]: did not significantly change
- Procollagen Ia1 Secretion (Fold Change of 1X), Mean ([2]; first donor, 234 μM (baseline, reference)): 1.0000 fold
- Procollagen Ia1 Secretion (Fold Change of 1X), Mean ([2]; first donor, 4684 μM): 1.1203 fold
- Procollagen Ia1 Secretion (Fold Change of 1X), Mean ([2]; first donor, 11710 μM): 1.2069 fold
- Procollagen Ia1 Secretion (Fold Change of 1X), Mean ([2]; first donor, 23420 μM): 1.2139 fold
- procollagen Iα1 secretion [2]: significantly increased procollagen Iα1 secretion in only one of two donors
- Procollagen Ia1 Secretion (Fold Change of 1X), Mean ([2]; second donor, single amino acid, 234 μM (1X reference)): 1.0000 fold change
- Procollagen Ia1 Secretion (Fold Change of 1X), Mean ([2]; second donor, single amino acid, 4684 μM): 1.2865 fold change
- Procollagen Ia1 Secretion (Fold Change of 1X), Mean ([2]; second donor, single amino acid, 11710 μM): 1.2877 fold change
- Procollagen Ia1 Secretion (Fold Change of 1X), Mean ([2]; second donor, single amino acid, 23420 μM): 1.3068 fold change
- Procollagen Ia1 Secretion (Fold Change of 1X), Mean ([2]; third donor, single amino acid, 234 μM (1X reference)): 1.0000 fold change
- Procollagen Ia1 Secretion (Fold Change of 1X), Mean ([2]; third donor, single amino acid, 4684 μM): 1.0428 fold change
- Procollagen Ia1 Secretion (Fold Change of 1X), Mean ([2]; third donor, single amino acid, 11710 μM): 1.0498 fold change
- Procollagen Ia1 Secretion (Fold Change of 1X), Mean ([2]; third donor, single amino acid, 23420 μM): 1.1139 fold change
- Col1a1 gene expression, mean [3, 4]: 2.093
- Col1a1 gene expression, mean [3, 5]: 2.203

Compound: CC[C@H](C)[C@H](N)C(=O)O [ILE, isoleucine]
- Hsp47 Fold Expression Relative to Control, normalized to Gapdh (Mean) ([1]; Table 38, second donor, 66 μM (baseline 1×HMDB concentration)): 1.00 fold
- Hsp47 Fold Expression Relative to Control, normalized to Gapdh (Mean) ([1]; Table 38, second donor, 1328 μM): 0.90 fold
- Hsp47 Fold Expression Relative to Control, normalized to Gapdh (Mean) ([1]; Table 38, second donor, 3320 μM): 0.92 fold
- Hsp47 Fold Expression Relative to Control, normalized to Gapdh (Mean) ([1]; Table 38, second donor, 6639 μM): 0.94 fold
- Hsp47 Fold Expression Relative to Control, normalized to Gapdh (Mean) ([1]; Table 40, second donor (so in the source), 66 μM (baseline 1×HMDB concentration)): 1.00 fold
- Hsp47 Fold Expression Relative to Control, normalized to Gapdh (Mean) ([1]; Table 40, second donor (so in the source), 1328 μM): 1.00 fold
- Hsp47 Fold Expression Relative to Control, normalized to Gapdh (Mean) ([1]; Table 40, second donor (so in the source), 3320 μM): 0.98 fold
- Hsp47 Fold Expression Relative to Control, normalized to Gapdh (Mean) ([1]; Table 40, second donor (so in the source), 6639 μM): 1.06 fold
- Hsp47 Fold Expression Relative to Control, Mean ([1]; 66 μM (1X reference)): 1.00 fold
- Hsp47 Fold Expression Relative to Control, Mean ([1]; 1328 μM): 1.07 fold
- Hsp47 Fold Expression Relative to Control, Mean ([1]; 3320 μM): 1.22 fold
- Hsp47 Fold Expression Relative to Control, Mean ([1]; 6639 μM): 0.99 fold
- Hsp47 gene expression [1]: did not significantly change
- Procollagen Ia1 Secretion (Fold Change of 1X), Mean ([2]; first donor, 66 μM (baseline, reference)): 1.0000 fold
- Procollagen Ia1 Secretion (Fold Change of 1X), Mean ([2]; first donor, 1328 μM): 0.9229 fold
- Procollagen Ia1 Secretion (Fold Change of 1X), Mean ([2]; first donor, 3320 μM): 1.1366 fold
- Procollagen Ia1 Secretion (Fold Change of 1X), Mean ([2]; first donor, 6639 μM): 1.2144 fold
- procollagen Iα1 secretion [2]: significantly increased procollagen Iα1 secretion in two of three donors
- Procollagen Ia1 Secretion (Fold Change of 1X), Mean ([2]; second donor, single amino acid, 66 μM (1X reference)): 1.0000 fold change
- Procollagen Ia1 Secretion (Fold Change of 1X), Mean ([2]; second donor, single amino acid, 1328 μM): 1.4811 fold change
- Procollagen Ia1 Secretion (Fold Change of 1X), Mean ([2]; second donor, single amino acid, 3320 μM): 1.4940 fold change
- Procollagen Ia1 Secretion (Fold Change of 1X), Mean ([2]; second donor, single amino acid, 6639 μM): 1.5423 fold change
- Procollagen Ia1 Secretion (Fold Change of 1X), Mean ([2]; third donor, single amino acid, 66 μM (1X reference)): 1.0000 fold change
- Procollagen Ia1 Secretion (Fold Change of 1X), Mean ([2]; third donor, single amino acid, 1328 μM): 1.2687 fold change
- Procollagen Ia1 Secretion (Fold Change of 1X), Mean ([2]; third donor, single amino acid, 3320 μM): 1.2703 fold change
- Procollagen Ia1 Secretion (Fold Change of 1X), Mean ([2]; third donor, single amino acid, 6639 μM): 1.4465 fold change
- Col1a1 gene expression, mean [3, 4]: 2.020
- Col1a1 gene expression, mean [3, 5]: 2.028
